Measurements from patent publication US11008346B2, “Beta-lactamase inhibitors” (priority 2014, dated 2021).
Where two headings read alike, the source gives them in different places.

Tests used:
[1] = molecular target: T1, OXA-1 β-lactamase (Escherichia coli, UniProt P13661); test: β-lactamase enzyme inhibition, OXA-1; assay type: biochemical; details: Nitrocefin 100 μM, 486 nm; 15 min at 37° C. preincubation; read-out: IC50 OXA-1 (Class D)
T1 construct: made in house; host or cells: E. coli BL21(DE3)
Protocol: For SHV-5, Kpc-2, p99AmpC and OXA-1 β-lactamases, E. coli BL21(DE3) bacterial cells carrying expression plasmids (expressed as native untagged proteins) for the individual β-lactamases were grown in 1 L of Superbroth (Teknova Inc. Hollister, Calif.) supplemented with 100 μg/ml kanamycin selection and 1×5052 (0.5% glycerol, 0.05% glucose and 0.2% α-lactose) at 35° C. for 18-20 hours. Cells were harvested by centrifugation (4,000×g, 4° C., 20 min), resuspended in 50 ml of 10 mM HEPES pH 7.5 ( 1/20 of the initial volume). The cells were lysed by sonication (5 pulses of 45 seconds) at 45 W on ice. The lysates were clarified by centrifugation at 10,000×g for 40 minutes at 4° C. Samples were diluted 5-fold in 50 mM sodium acetate pH 5.0, stored overnight at 4° C., after which they were centrifuged at 10,000×g for 30 minutes to clarify, and filtered through 0.45 μm filters. The samples were loaded onto a 5 ml Capto S sepharose cation exchange column (GE Healthcare) pre-equilibrated with 50 mM sodium acetate pH 5.0. The column was washed with 5 column volumes of 50 mM sodium acetate pH 5.0 to wash out unbound protein and a linear gradient of NaCl (0 to 500 mM) was used to elute the protein (over 16 CV) from the column. Fractions were assayed for […] activity using Centa (Calbiochem, Gibbstown, N.J.) or Nitrocefin (EMD Millipore chemicals, Darmstadt, Germany) as a reporter β-lactamase substrate for activity in the isolated fractions. Active fractions were pooled, concentrated and further purified by gel filtration chromatography on a Superdex 75 prep grade gel filtration column (GE Healthcare, Piscataway, N.J.) pre-equilibrated in 50 mM Hepes pH 7.5, 150 mM NaCl. Active fractions were pooled, concentrated, and quantitated by BCA protein determination (Thermo Scientific, Rockford, Ill.), dialyzed into PBS and frozen at −80° C. in 20% glycerol until use.
An equal volume of diluted enzyme stock was added, and the plates were incubated at 37° C. for 15 min. Nitrocefin was used as substrate for p99 AmpC, VIM-2 and OXA-1 and dispensed into each well at a final concentration of 100 μM. Absorbance at 486 nm was immediately monitored for 10 min using a Biotek Powerwave XS2 microplate spectrophotometer using the GEN5 software package (Biotek Instruments, Winooski Vt.). In an analogous fashion, imipenem was used as substrate for KPC-2 and Cefotaxime was used for SHV-5, while changes in absorbance upon hydrolysis of the β-lactam ring were monitored at 300 nm and 260 nm respectively in UV-transparent 96-well microtiter assay plates. Maximum rates of hydrolysis were compared to those in control wells (without inhibitors), and percentages of enzyme inhibition were calculated for each concentration of inhibitor. The concentration of inhibitor needed to reduce the initial rate of hydrolysis of substrate by 50% (IC50) was calculated as the residual activity of β-lactamase at 486 nm using GraFit version 7 kinetics software package (Erithacus Software, Surrey, UK).
Using the methodology described above, examples of the current invention were evaluated for their ability to inhibit β-lactamase enzymes from all four Ambler classifications (A through D). […] NT=Not tested.

[2] = system: E. coli ESBL4 expressing CTX-M-15; test: broth microdilution MIC, E. coli CTX-M-15; assay type: cell-based; details: Fixed CAZ (ceftazidime) 4 μg/mL
How it was run: (§1)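 First, strains were grown 3-5 hours in CAMHB; then compound dilutions (32 to 0.25 μg/mL final) received a beta-lactam overlay at 4 μg/mL final. Finally, plates were inoculated per CLSI and incubated 16-20 hours at 37° C.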

[3] = molecular target: T2, VIM-2 metallo β-lactamase (Pseudomonas aeruginosa, UniProt Q9K2N0); test: β-lactamase enzyme inhibition, VIM-2; assay type: biochemical; details: Nitrocefin 100 μM, 486 nm; 15 min at 37° C. preincubation; read-out: IC50 VIM-2 (Class B)
T2 construct: made in house; host or cells: E. coli BL21(DE3)
How it was run: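 Inhibitor and enzyme sat together 15 min at 37° C before 100 μM nitrocefin (final) was added and 486 nm absorbance read for 10 min. IC50 is the concentration halving initial hydrolysis rate relative to uninhibited wells. Protein came from Q sepharose anion exchange at pH 7.5, repeated to >90% purity.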

[4] = system: K. pneumoniae A-1797 expressing KPC-2 and VIM-4; test: broth microdilution MIC, K. pneumoniae KPC-2 and VIM-4; assay type: cell-based; details: Fixed Mero (meropenem) 4 μg/mL
How it was run: as §1

[5] = molecular target: T3, SHV-5 β-lactamase (Klebsiella pneumoniae, UniProt P0A3M1); test: β-lactamase enzyme inhibition, SHV-5; assay type: biochemical
T3 construct: made in house; host or cells: E. coli BL21(DE3)
How it was run: (§2)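 IC50 was the inhibitor concentration halving the initial hydrolysis rate versus no-inhibitor wells, following a 15 min 37° C. enzyme–inhibitor preincubation. Substrates: imipenem read at 300 nm for KPC-2, cefotaxime at 260 nm for SHV-5, and nitrocefin (100 μM final) at 486 nm for OXA-1 and p99 AmpC. Enzymes were recombinant untagged proteins from E. coli BL21(DE3).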

[6] = molecular target: T4, p99 AmpC β-lactamase (Enterobacter cloacae, UniProt P05364); test: β-lactamase enzyme inhibition, p99 AmpC; assay type: biochemical
T4 construct: made in house; host or cells: E. coli BL21(DE3)
How it was run: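 Inhibitor and enzyme were incubated 15 min at 37°C first. The enzyme was recombinant p99 AmpC, untagged, from E. coli BL21(DE3), purified by ion-exchange and size-exclusion chromatography.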

[7] = system: K. pneumoniae 156319 expressing KPC-3; test: broth microdilution MIC, K. pneumoniae KPC-3; assay type: cell-based; details: Fixed Mero (meropenem) 4 μg/mL
How it was run: as §1

[8] = system: E. cloacae 144200 expressing Class C P99 AmpC; test: broth microdilution MIC, E. cloacae P99; assay type: cell-based; details: Fixed CAZ (ceftazidime) 4 μg/mL
How it was run: as §1

[9] = molecular target: T5, KPC-2 β-lactamase (Klebsiella pneumoniae, UniProt Q9F663); test: β-lactamase enzyme inhibition, KPC-2; assay type: biochemical
T5 construct: made in house; host or cells: E. coli BL21(DE3)
How it was run: as §2

[10] = imipenem substrate, 300 nm, 15 min at 37° C. preincubation, read-out: IC50 KPC-2 (Class A)

T4 sequence (P05364 21-381): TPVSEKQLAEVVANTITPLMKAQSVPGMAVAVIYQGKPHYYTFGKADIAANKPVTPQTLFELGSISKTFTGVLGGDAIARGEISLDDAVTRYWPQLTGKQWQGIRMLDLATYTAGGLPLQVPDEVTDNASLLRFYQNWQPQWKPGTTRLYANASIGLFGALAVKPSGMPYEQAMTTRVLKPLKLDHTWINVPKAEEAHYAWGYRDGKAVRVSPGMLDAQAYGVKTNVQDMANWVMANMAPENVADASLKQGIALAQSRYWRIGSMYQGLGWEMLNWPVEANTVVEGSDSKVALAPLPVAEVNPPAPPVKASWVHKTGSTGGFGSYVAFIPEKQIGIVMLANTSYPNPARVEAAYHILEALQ
T5 sequence (Q9F663 25-293, looked up): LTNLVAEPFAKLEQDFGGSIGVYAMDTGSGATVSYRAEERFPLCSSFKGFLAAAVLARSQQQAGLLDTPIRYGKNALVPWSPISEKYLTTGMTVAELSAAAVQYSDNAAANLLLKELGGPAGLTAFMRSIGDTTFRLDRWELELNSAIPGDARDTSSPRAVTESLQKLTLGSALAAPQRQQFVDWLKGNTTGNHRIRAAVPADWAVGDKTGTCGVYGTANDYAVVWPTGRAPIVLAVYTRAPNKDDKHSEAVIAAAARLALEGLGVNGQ
T3 sequence (P0A3M1 22-286): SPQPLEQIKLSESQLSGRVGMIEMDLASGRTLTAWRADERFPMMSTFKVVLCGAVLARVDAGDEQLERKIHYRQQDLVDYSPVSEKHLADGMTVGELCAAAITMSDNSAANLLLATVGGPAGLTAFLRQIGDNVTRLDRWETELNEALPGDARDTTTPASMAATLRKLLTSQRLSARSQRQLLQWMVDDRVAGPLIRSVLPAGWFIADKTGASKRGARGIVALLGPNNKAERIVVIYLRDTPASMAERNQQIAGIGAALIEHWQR
T1 sequence (P13661 26-276): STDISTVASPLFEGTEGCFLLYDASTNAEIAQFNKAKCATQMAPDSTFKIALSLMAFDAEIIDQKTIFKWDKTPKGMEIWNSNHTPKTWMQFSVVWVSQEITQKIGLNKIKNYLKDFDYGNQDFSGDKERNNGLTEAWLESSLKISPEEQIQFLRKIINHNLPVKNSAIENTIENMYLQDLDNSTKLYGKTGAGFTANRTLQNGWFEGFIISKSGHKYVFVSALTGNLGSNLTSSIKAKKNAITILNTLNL

Structure (SMILES)	IC50 [1] [nM]	MIC of exemplary compounds in presence of fixed β-lactams, E. coli ESBL4 CTX-M-15 [2]	IC50 [3] [nM]	MIC of exemplary compounds in presence of fixed β-lactams, K.P. A-1797 KPC-2 VIM-4 [4]	IC50 [5] [nM]	IC50 [6] [nM]	MIC of exemplary compounds in presence of fixed β-lactams, K.P. 156319 KPC-3 [7]	MIC of exemplary compounds in presence of fixed β-lactams, E. cl. 144200 p99 AmpC [8]	IC50 [9] [nM]	IC50 [9, 10] [nM]
C#CCCC(=O)N[C@H]1Cc2cccc(C(=O)O)c2OB1O [Example 37, (R)-2-Hydroxy-3-pent-4-ynoylamino-3,4-dihydro-2H-benzo[e][1,2]oxaborinine-8-carboxylic acid]	< 100	C (C represents the MIC in the presence of ≤4 g/mL of a β-lactamase inhibitor)	1000 to 10000	B (B represents the MIC in the presence of between 8 and 32 g/mL of a β-lactamase inhibitor)	< 100	< 100	C (C represents the MIC in the presence of ≤4 g/mL of a β-lactamase inhibitor)	C (C represents the MIC in the presence of ≤4 g/mL of a β-lactamase inhibitor)	< 100	–
N#CCCC(=O)N[C@H]1Cc2ccc(F)c(C(=O)O)c2OB1O [Example 46, (R)-3-(3-Cyano-propionylamino)-7-fluoro-2-hydroxy-3,4-dihydro-2H-benzo[e][1,2]oxaborinine-8-carboxylicacid]	< 100	C (C represents the MIC in the presence of ≤4 g/mL of a β-lactamase inhibitor)	100 to 1000	B (B represents the MIC in the presence of between 8 and 32 g/mL of a β-lactamase inhibitor)	< 100	< 100	C (C represents the MIC in the presence of ≤4 g/mL of a β-lactamase inhibitor)	C (C represents the MIC in the presence of ≤4 g/mL of a β-lactamase inhibitor)	–	< 100
O=C(CCC(=O)C(F)(F)F)N[C@H]1Cc2cccc(C(=O)O)c2OB1O [Example 38, (R)-2-Hydroxy-3-(5,5,5-trifluoro-4-oxo-pentanoylamino)-3,4-dihydro-2H-benzo[e][1,2]oxaborinine-8-carboxylicacid]	< 100	B (B represents the MIC in the presence of between 8 and 32 g/mL of a β-lactamase inhibitor)	1000 to 10000	B (B represents the MIC in the presence of between 8 and 32 g/mL of a β-lactamase inhibitor)	< 100	< 100	B (B represents the MIC in the presence of between 8 and 32 g/mL of a β-lactamase inhibitor)	C (C represents the MIC in the presence of ≤4 g/mL of a β-lactamase inhibitor)	–	100 to 1000
CS(=O)(=O)NCCC(=O)N[C@H]1Cc2cc(F)c(F)c(C(=O)O)c2OB1O [Example 51, (R)-6,7-Difluoro-2-hydroxy-3-(3-methanesulfonylamino-propionylamino)-3,4-dihydro-2H-benzo[e][1,2]oxaborinine-8-carboxylic acid]	< 100	C (C represents the MIC in the presence of ≤4 g/mL of a β-lactamase inhibitor)	1000 to 10000	B (B represents the MIC in the presence of between 8 and 32 g/mL of a β-lactamase inhibitor)	< 100	< 100	C (C represents the MIC in the presence of ≤4 g/mL of a β-lactamase inhibitor)	C (C represents the MIC in the presence of ≤4 g/mL of a β-lactamase inhibitor)	–	< 100
